Laboratory results as given in patent publication US11590128B2, “Combination therapy of a type II anti-CD20 antibody with a selective BCL-2 inhibitor” (GENENTECH, INC., priority 2012, dated 2023).

Columns and labels:
[1] = test system: SU.DHL-4 diffuse large B-cell lymphoma xenograft; test: NHL xenograft model of aggressive lymphoma (DLBCL SU.DHL-4), Example 1; assay type: in vivo, mice
Excerpt: The study used a non-Hodgkin's lymphoma (NHL) xenograft model of aggressive lymphoma, the diffuse large B-cell lymphoma (DLBCL) derived cell line SU.DHL-4.
In FIG. 1, the dose of GDC-0199 is expressed as free base equivalents in mg/kg of body weight. Results are expressed as the fitted tumor volume as determined by linear mixed effects modeling for each treatment group vs. time in days, where Day 0 is the first day of treatment.

[2] = test system: human Z138 mantle cell lymphoma cells; test: Tumor growth inhibition study in vivo, Z138 mantle cell lymphoma xenograft, Example 3; set-up: species or system SCID beige mice; details: day 35 after tumor cell inoculation; antibodies 1 mg/kg i.p. once weekly x3; GDC-0199 100 mg/kg p.o. once daily for 17 days
Description: Animals. […] Continuous health monitoring was carried out on regular basis.
Monitoring. Animals were controlled daily for clinical symptoms and detection of adverse effects.
Treatment of animals. […] The corresponding vehicle was administered on the same days.

[3] = test system: DLBCL SU-DHL-4 xenograft; test: DLBCL SU-DHL-4 xenograft model, combination followed by single-agent GDC-0199, Example 4; assay type: in vivo, mice; details: GDC-0199 orally for 21 days, GA101 1 mg/kg QW for 3 weeks; alone or in combination
Description: At day 22 tumor bearing mice in the combination cohort continued to be dosed with GDC-0199 alone at 100 mg/kg for an additional 24 days.
As explained above, a cohort of tumor bearing mice was also dosed with GDC-0199 alone for an additional 24 days after combination treatment ended on day 21 (QD×45). Under the x-axis, treatment periods are denoted by solid black lines ( ? ) for the combination cohorts while the continued single agent GDC-0199 treatment is denoted by dashed black line ( ? ).

Row | Molecule | tumor growth inhibition (TGI) ([1]; after three weeks of therapy (treatment ended day 21)) [%] | tumor growth inhibition (TGI) ([1]; at day 31 (10 days after dosing ended)) [%] | antitumor outcome (in words) ([1]; obinutuzumab 1 mg/kg IV once a week for 3 weeks, GDC-0199 100 mg/kg QD for 21 days, alone or combined) | tumor growth inhibition compared to the control group [2] [%] | tumor growth inhibition (TGI) [3] [%]
1 | CC1(C)CCC(CN2CCN(c3ccc(C(=O)NS(=O)(=O)c4ccc(NCC5CCOCC5)c([N+](=O)[O-])c4)c(Oc4cnc5[nH]ccc5c4)c3)CC2)=C(c2ccc(Cl)cc2)C1 [GDC-0199, 2-(1H-pyrrolo[2,3-b]pyridin-5-yloxy)-4-(4-((2-(4-chlorophenyl)-4,4-dimethylcyclohex-1-enyl)methyl)piperazin-1-yl)-N-(3-nitro-4-(((tetrahydro-2H-pyran-4-yl)methyl)amino)phenylsulfonyl)benzamide] | 80 | 25 | stasis followed by tumor growth delay | 59 | 24
2 | rituximab: type I anti-CD20 antibody | – | – | – | 32 | –
